# Source: ChEMBL document CHEMBL3612054 (Bioorg Med Chem, 2015)
# pKi: −log10 of the molar value.
# How the values were obtained:
# MDCK = assay: Permeability from apical to basolateral side in MDCK cells expressing human MDR1 at 10 uM after 1 hr by chromatography analysis; assay type: ADME, cell-based, Canis lupus familiaris; settings: dog
# [1] = molecular target: T1, Voltage-gated inwardly rectifying potassium channel KCNH2 (Homo sapiens, UniProt Q12809)
# Description: (§1) Displacement of [3H]-astemizole from human ERG
# [2] = Metabolic stability of the compound in plasma (unknown origin) assessed as compound remaining at 10 uM after 60 mins; assay type: ADME, cell-free; settings: read-out: Stability
# [3] = Metabolic stability of the compound in hepatic S9 fraction (unknown origin) assessed as compound remaining at 10 uM after 60 mins; assay type: ADME, tissue-based, Liver; settings: read-out: Stability
# [4] = Permeability of the compound at pH 5.5 at 10 uM by PAMPA; assay type: physicochemical; settings: pH 5.5, 10 µM
# [5] = Solubility of the compound in 10 mM phosphate buffer at pH 3 after 90 mins by LC/MS analysis; assay type: physicochemical
# [6] = molecular target: T1, Voltage-gated inwardly rectifying potassium channel KCNH2; remark: listed apart in the source
# Description: as §1
# [7] = Solubility of the compound in 10 mM phosphate buffer at pH 7.4 after 90 mins by LC/MS analysis; assay type: physicochemical
# [8] = Permeability of the compound at pH 7.4 at 10 uM by PAMPA; assay type: physicochemical; settings: pH 7.4, 10 µM
# [9] = molecular target: Delta-type opioid receptor (Homo sapiens) (UniProt P41143)
# Chain of Delta-type opioid receptor (Homo sapiens) (P41143 whole entry): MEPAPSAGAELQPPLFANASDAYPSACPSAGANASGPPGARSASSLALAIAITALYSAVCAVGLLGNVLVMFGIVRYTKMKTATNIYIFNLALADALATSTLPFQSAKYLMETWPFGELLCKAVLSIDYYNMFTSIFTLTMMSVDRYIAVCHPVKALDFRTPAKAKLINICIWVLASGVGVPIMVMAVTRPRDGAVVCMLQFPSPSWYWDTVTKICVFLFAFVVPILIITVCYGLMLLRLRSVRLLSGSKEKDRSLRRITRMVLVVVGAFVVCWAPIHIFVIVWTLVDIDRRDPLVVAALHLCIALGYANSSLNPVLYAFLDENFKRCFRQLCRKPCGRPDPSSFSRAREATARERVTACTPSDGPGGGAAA
# Description: Antagonist activity at cloned human delta opioid receptor assessed as inhibition of DPDPE-induced [35S]GTPgammaS binding
# T1 sequence (Q12809 whole entry): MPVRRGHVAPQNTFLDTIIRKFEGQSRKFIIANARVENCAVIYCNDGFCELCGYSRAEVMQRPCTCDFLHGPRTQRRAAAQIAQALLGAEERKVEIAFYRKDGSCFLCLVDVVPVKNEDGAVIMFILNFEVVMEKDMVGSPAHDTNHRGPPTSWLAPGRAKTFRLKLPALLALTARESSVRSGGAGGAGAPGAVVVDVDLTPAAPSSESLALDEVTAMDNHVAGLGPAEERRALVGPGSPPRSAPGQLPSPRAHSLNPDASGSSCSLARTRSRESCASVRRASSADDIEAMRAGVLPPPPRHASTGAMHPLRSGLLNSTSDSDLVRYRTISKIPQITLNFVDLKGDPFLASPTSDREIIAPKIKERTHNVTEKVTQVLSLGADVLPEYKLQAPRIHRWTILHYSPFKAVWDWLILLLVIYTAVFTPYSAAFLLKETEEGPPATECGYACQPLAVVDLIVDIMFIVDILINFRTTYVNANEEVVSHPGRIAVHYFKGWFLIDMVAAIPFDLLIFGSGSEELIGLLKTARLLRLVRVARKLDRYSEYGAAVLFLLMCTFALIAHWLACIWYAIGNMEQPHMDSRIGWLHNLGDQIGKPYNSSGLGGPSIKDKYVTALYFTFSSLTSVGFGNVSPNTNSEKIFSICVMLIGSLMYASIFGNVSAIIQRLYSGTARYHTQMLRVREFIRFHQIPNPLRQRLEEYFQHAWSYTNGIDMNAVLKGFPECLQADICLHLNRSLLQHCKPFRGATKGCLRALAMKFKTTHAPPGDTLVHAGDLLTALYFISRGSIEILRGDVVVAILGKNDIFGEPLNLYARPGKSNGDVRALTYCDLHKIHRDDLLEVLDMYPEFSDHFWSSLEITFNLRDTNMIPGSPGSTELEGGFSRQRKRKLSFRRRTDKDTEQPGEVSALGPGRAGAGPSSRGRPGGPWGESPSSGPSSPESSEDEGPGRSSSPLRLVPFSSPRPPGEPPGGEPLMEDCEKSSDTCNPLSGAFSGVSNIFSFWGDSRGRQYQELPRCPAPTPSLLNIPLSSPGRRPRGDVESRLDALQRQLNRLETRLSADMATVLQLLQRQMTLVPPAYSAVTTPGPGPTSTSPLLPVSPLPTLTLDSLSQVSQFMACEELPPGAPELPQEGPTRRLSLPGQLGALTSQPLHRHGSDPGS
Structure (SMILES),permeability (MDCK),pKi [1],"remaining at 1 h, 10 µM [2]","remaining at 1 h, 10 µM [3]",permeability [4],solubility [5],pKi [6],solubility [7],permeability [8],Ke [9]
CC(C)[C@@H](CN1CCC(C)(c2cccc(F)c2)CC1)NC(=O)[C@H]1Cc2ccc(O)cc2CN1,1.3%,5.37,,,,,,,,
CC(C)[C@@H](CN1CC[C@@](C)(c2ccccc2)[C@@H](C)C1)NC(=O)[C@H]1Cc2ccc(O)cc2CN1,27%,,67%,82%,67.3%,42 µM,5.15,11 µM,91.4%,
CC(C)[C@@H](CN1CCC(c2cccc(F)c2)CC1)NC(=O)[C@H]1Cc2ccc(O)cc2CN1,,6.36,,,,,,,,
CC(C)[C@@H](CN1CC[C@@](C)(c2cccc(O)c2)[C@@H](C)C1)NC(=O)[C@H]1Cc2ccc(O)cc2CN1 [JDTIC],11%,,97%,76%,57.9%,34 µM,5.05,11 µM,,
CC(C)[C@@H](CN1CCC(c2ccccc2)CC1)NC(=O)[C@H]1Cc2ccc(O)cc2CN1,,6.11,,,,,,,,281 nM
